Laboratory results as given in US9814672B2, “Echogenic vehicle for clinical delivery of plasminogen activator and other fibrin-binding therapeutics to thrombi” (priority 2007, dated 2017).

What was measured:
[1] = test system: whole porcine blood clots; experiment: In vitro thrombolysis, percent clot mass loss; details: 1 MHz CW, 2 W/cm^2, 2 min vs. no ultrasound
Experimental: Whole porcine blood clots were used to evaluate thrombolysis. Blood was obtained from non-heparinized Yucatan miniswine. The miniswine were 6-8 weeks old and weighed 28.5±6.5 lb. Baseline blood analysis data, including complete blood count, prothrombin time, activated partial thromboplastin time, D-dimer, and fibrinogen were obtained to ensure normal clotting parameters. Whole blood clots were made by aliquoting 1.5 ml fresh porcine blood into 1.3-cm inner diameter vacutainer tubes; the tubes were incubated in a 37° C. water bath for 3 h. The clots were then stored at 4° C. until use, which ensured complete clot maturation and retraction. This type of clot is fairly similar to physiologic venous clots. Most miniswine used in this study were slightly anemic (hematocrit of 27.8±3.0%). Only donors with values of <250 ng/ml for the D-dimer test, <15 s for prothrombin time, <18 s for activated partial thromboplastin time, and <300 mg/dl fibrinogen concentration were considered acceptable. The resulting clots were dark red, cylindrical, and weighed 0.47±0.11 g. All unused clots were discarded after 2 weeks.
Whole porcine blood clots were blotted gently and weighed using an analytical balance. […]
Porcine clots were treated with 1 MHz continuous wave (CW) ultrasound with an intensity of 2 W/cm^2, for 2 min (Sonitron 1000; Rich-Mar). The calculated peak negative acoustic pressure output was 0.12 MPa. […]

[2] = test system: occluded femoral artery; details: tPA infusion with transcutaneous ultrasound; cited from earlier work
[3] = tPA enzyme activity after PPACK inactivation, paranitroanilide-substrate method; format: biochemical; details: S.E., n=3
Experimental: Reconstituted tPA was incubated with a fivefold molar excess of PPACK in 0.2 M L-arginine in 0.05M phosphate buffer, pH 7.2, with 0.01% Tween 20 for 1 hour at room temperature, followed by dialysis against reaction buffer to remove unreacted PPACK. A control preparation was carried through the procedure without PPACK and all procedures involving PPACK were protected from light. Enzyme activity in PPACK-treated and control tPA preparations was measured with a […] paranitroanilide-substrate method (Ranby and Wallen, 1981).

Percent Starting Activity [3] [%] | Substance | effect of ultrasound exposure on thrombolysis [1] | decrease in time for recanalization [2] [%]
 | tPA: Recombinant tissue-plasminogen activator (Activase®, Genentech Inc.), used as the thrombolytic agent [reference compound] | no significant augmentation of thrombolysis | 80
4.7 ± 2.9 | tPA(P): Human recombinant tPA (Activase®) irreversibly inhibited with D-phe-L-pro-L-arg-chloromethyl ketone (PPACK) |  | 
